Key:
[1] = molecular target: T1, BRD4 Bromodomain 2 (BRD4 BD2) (Homo sapiens, UniProt O60885); test: AlphaScreen binding assay, BRD4 BD2; settings: His-tagged BRD4 BD2 100 nM, biotinylated H4 (1-21) K5/8/12/16 tetra-acetylated peptide 100 nM, compounds listed under IC50 range headings
T1 construct: 333-460 were cloned, expressed, and purified to homogeneity
How it was run: (§1)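 Compound dilution series were mixed with His-tagged BRD4 bromodomain and biotinylated tetra-acetylated H4 (1-21) peptide at pH 7.3 (BD1 and peptide at 50 nM, BD2 and peptide at 100 nM). Donor and acceptor beads were then added, and plates were equilibrated at least 1 h before reading. IC50 values were fitted with a four-parameter logistic model.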

[2] = molecular target: T2, BRD4 Bromodomain 1 (BRD4 BD1) (Homo sapiens, UniProt O60885); test: AlphaScreen binding assay, BRD4 BD1; settings: His-tagged BRD4 BD1 50 nM, biotinylated H4 (1-21) K5/8/12/16 tetra-acetylated peptide 50 nM, compounds listed under IC50 range headings
T2 construct: 44-168 and BRD4 BD2
How it was run: as §1

[3] = system: acute myelocytic leukemia (AML) cell line MV4-11; test: Oncology cell growth assay (3-day proliferation, CellTiter-Glo); assay type: cell-based; settings: Homo sapiens, MV4-11, 72 h, MV4-11 cells, 3000 cells/well, compounds listed under IC50 range headings, read-out: MV411 IC50 (gIC50, inhibition of proliferation)
How it was run: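 A 3-day proliferation test used MV4-11 cells seeded at 3000 per well with eight compound concentrations (10 μM top, 3-fold dilution) at 37° C in 5% CO2. CellTiter-Glo luminescence defined viable cell signal. A four-parameter logistic curve against DMSO and background wells gave the gIC50.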

SMILES	IC50 [1]	IC50 [2]	IC50 [3]
COC(=O)N1c2ccc(-c3cnn(C4CC4)c3)c(O[C@@H](F)C(N)=O)c2CC[C@@H]1C [I-20, (S)-methyl 5-((S)-2-amino-1-fluoro-2-oxoethoxy)-6-(1-cyclopropyl-1H-pyrazol-4-yl)-2-methyl-3,4-dihydroquinoline-1(2H)-carboxylate]	≥ 500 nM	≥ 10000 nM	> 1000 nM
COC(=O)N1c2ccc(-c3cnn(C4CC4)c3)c(OCC(=O)N(C)C3CC3)c2CC[C@@H]1C [I-22, (S)-methyl 5-(2-(cyclopropyl(methyl)amino)-2-oxoethoxy)-6-(1-cyclopropyl-1H-pyrazol-4-yl)-2-methyl-3,4-dihydroquinoline-1(2H)-carboxylate]	< 50 nM	100 to 1000 nM	< 500 nM
COC(=O)N1c2ccc(-c3cnn(C4CC4)c3)c(OCC(=O)N3CCC3)c2CC[C@@H]1C [I-23, (S)-methyl 5-(2-(azetidin-1-yl)-2-oxoethoxy)-6-(1-cyclopropyl-1H-pyrazol-4-yl)-2-methyl-3,4-dihydroquinoline-1(2H)-carboxylate]	50 to 500 nM	100 to 1000 nM	500 to 1000 nM
COC(=O)N1c2ccc(-c3cnn(C4CC4)c3)c(OCC(=O)N3CCCCC3)c2CC[C@@H]1C [I-24, (S)-methyl 6-(1-cyclopropyl-1H-pyrazol-4-yl)-2-methyl-5-(2-oxo-2-(piperidin-1-yl)ethoxy)-3,4-dihydroquinoline-1(2H)-carboxylate]	< 50 nM	100 to 1000 nM	> 1000 nM
COC(=O)N1c2ccc(-c3cnn(C4CC4)c3)c(OCS(=O)(=O)N(C)C)c2CC[C@@H]1C [I-29, (S)-methyl 6-(1-cyclopropyl-1H-pyrazol-4-yl)-5-((N,N-dimethylsulfamoyl)methoxy)-2-methyl-3,4-dihydroquinoline-1(2H)-carboxylate]	50 to 500 nM	1000 to 10000 nM	> 1000 nM
COC(=O)N1c2ccc(-c3cnn(C4CC4)c3)c(OCCC3COC3)c2CC[C@@H]1C [I-30, (S)-methyl 6-(1-cyclopropyl-1H-pyrazol-4-yl)-2-methyl-5-(2-(oxetan-3-yl)ethoxy)-3,4-dihydroquinoline-1(2H)-carboxylate]	50 to 500 nM	1000 to 10000 nM	< 500 nM
COC(=O)N1c2ccc(-c3cnn(C4CC4)c3)c(OCC3CC3(F)F)c2CC[C@@H]1C (stereo partly drawn) [I-31, (2S)-methyl 6-(1-cyclopropyl-1H-pyrazol-4-yl)-5-((2,2-difluorocyclopropyl)methoxy)-2-methyl-3,4-dihydroquinoline-1(2H)-carboxylate]	< 50 nM	100 to 1000 nM	500 to 1000 nM
CCCOc1c(C2=CCN(C(=O)OC(C)(C)C)CC2)ccc2c1CC[C@H](C)N2C(C)=O [I-34, tert-butyl (S)-4-(1-acetyl-2-methyl-5-propoxy-1,2,3,4-tetrahydroquinolin-6-yl)-3,6-dihydropyridine-1(2H)-carboxylate]	50 to 500 nM	≥ 10000 nM	> 1000 nM
CC(=O)N1c2ccc(-c3cnn(C4CC4)c3)c(OCC(F)(F)F)c2CC[C@@H]1C [I-35, (S)-1-(6-(1-cyclopropyl-1H-pyrazol-4-yl)-2-methyl-5-(2,2,2-trifluoroethoxy)-3,4-dihydroquinolin-1(2H)-yl)ethanone]	50 to 500 nM	1000 to 10000 nM	500 to 1000 nM
CC(=O)N1c2ccc(-c3cnn(C4CC4)c3)c(OCC(F)F)c2CC[C@@H]1C [I-36, (S)-1-(6-(1-cyclopropyl-1H-pyrazol-4-yl)-5-(2,2-difluoroethoxy)-2-methyl-3,4-dihydroquinolin-1(2H)-yl)ethanone]	< 50 nM	1000 to 10000 nM	500 to 1000 nM
CC(=O)N1c2ccc(-c3cnn(C4CC4)c3)c(OCC(C)(C)CO)c2CC[C@@H]1C [I-39, (S)-1-(6-(1-cyclopropyl-1H-pyrazol-4-yl)-5-(3-hydroxy-2,2-dimethylpropoxy)-2-methyl-3,4-dihydroquinolin-1(2H)-yl)ethanone]	< 50 nM	100 to 1000 nM	500 to 1000 nM
CC(=O)N1c2ccc(-c3cnn(C4CC4)c3)c(OCCN3CCCC3=O)c2CC[C@@H]1C [I-42, (S)-1-(2-(1-acetyl-6-(1-cyclopropyl-1H-pyrazol-4-yl)-2-methyl-1,2,3,4-tetrahydroquinolin-5-yloxy)ethyl)pyrrolidin-2-one]	50 to 500 nM	100 to 1000 nM	> 1000 nM
CC(=O)N1c2ccc(-c3cnn(C4CC4)c3)c(OCC(=O)N3CCOCC3)c2CC[C@@H]1C [I-43, (S)-2-(1-acetyl-6-(1-cyclopropyl-1H-pyrazol-4-yl)-2-methyl-1,2,3,4-tetrahydroquinolin-5-yloxy)-1-morpholinoethanone]	50 to 500 nM	100 to 1000 nM	> 1000 nM
CC(=O)N1c2ccc(-c3cnn(C4CC4)c3)c(OCCN3CCCS3(=O)=O)c2CC[C@@H]1C [I-44, 2-(2-{[(2S)-1-acetyl-6-(1-cyclopropyl-1H-pyrazol-4-yl)-2-methyl-1,2,3,4-tetrahydroquinolin-5-yl]oxy}ethyl)-1λ^6,2-thiazolidine-1,1-dione]	< 50 nM	100 to 1000 nM	500 to 1000 nM
CC(=O)N1c2ccc(-c3cnn(C4CC4)c3)c(OCS(=O)(=O)N(C)C)c2CC[C@@H]1C [I-46, (S)-(1-acetyl-6-(1-cyclopropyl-1H-pyrazol-4-yl)-2-methyl-1,2,3,4-tetrahydroquinolin-5-yloxy)-N,N-dimethylmethanesulfonamide]	50 to 500 nM	1000 to 10000 nM	500 to 1000 nM
CC(=O)N1c2ccc(-c3cnn(C4CC4)c3)c(OCC3CC3(F)F)c2CC[C@@H]1C (stereo partly drawn) [I-48, 1-((S)-6-(1-cyclopropyl-1H-pyrazol-4-yl)-5-((2,2-difluorocyclopropyl)methoxy)-2-methyl-3,4-dihydroquinolin-1(2H)-yl)ethanone]	< 50 nM	< 100 nM	< 500 nM
CC(=O)N1c2ccc(-c3cnn(C4CC4)c3)c(OCC3(CO)COC3)c2CC[C@@H]1C [I-49, (S)-1-(6-(1-cyclopropyl-1H-pyrazol-4-yl)-5-((3-(hydroxymethyl)oxetan-3-yl)methoxy)-2-methyl-3,4-dihydroquinolin-1(2H)-yl)ethanone]	< 50 nM	100 to 1000 nM	> 1000 nM
CC(=O)N1c2ccc(-c3cnn(C4CC4)c3)c(OCC3(F)COC3)c2CC[C@@H]1C [I-50, (S)-1-(6-(1-cyclopropyl-1H-pyrazol-4-yl)-5-((3-fluorooxetan-3-yl)methoxy)-2-methyl-3,4-dihydroquinolin-1 (2H)-yl)ethanone]	< 50 nM	100 to 1000 nM	500 to 1000 nM
CC(=O)N1c2ccc(-c3cnn(C4CC4)c3)c(OC3CC(F)(F)C3)c2CC[C@@H]1C [I-51, (S)-1-(6-(1-cyclopropyl-1H-pyrazol-4-yl)-5-(3,3-difluorocyclobutoxy)-2-methyl-3,4-dihydroquinolin-1(2H)-yl)ethanone]	< 50 nM	100 to 1000 nM	< 500 nM
C[C@H]1CCc2c(ccc(-c3cn(C)nn3)c2OC2CCC2)N1C(=O)C1CC1 [I-53, (S)-(5-cyclobutoxy-2-methyl-6-(1-methyl-1H-1,2,3-triazol-4-yl)-3,4-dihydroquinolin-1 (2H)-yl)(cyclopropyl)methanone]	< 50 nM	100 to 1000 nM	< 500 nM
CC(=O)N1c2ccc(-c3cnn(C4CC4)c3)c(OC3CNC3)c2CC[C@@H]1C [I-60, (S)-1-(5-(azetidin-3-yloxy)-6-(1-cyclopropyl-1H-pyrazol-4-yl)-2-methyl-3,4-dihydroquinolin-1(2H)-yl)ethanone]	≥ 500 nM	≥ 10000 nM	> 1000 nM
COC(=O)N1c2ccc(-c3cnn(C4CS(=O)(=O)C4)c3)c(OC3CCC3)c2CC[C@@H]1C [I-61, Methyl (S)-5-cyclobutoxy-6-(1-(1,1-dioxidothietan-3-yl)-1H-pyrazol-4-yl)-2-methyl-3,4-dihydroquinoline-1(2H)-carboxylate]	50 to 500 nM	100 to 1000 nM	< 500 nM
COC(=O)N1c2ccc(-c3cnn(C4CCCS(=O)(=O)C4)c3)c(OC3CCC3)c2CC[C@@H]1C (stereo partly drawn) [I-62, Methyl (2S)-5-cyclobutoxy-6-(1-(1,1-dioxidotetrahydro-2H-thiopyran-3-yl)-1H-pyrazol-4-yl)-2-methyl-3,4-dihydroquinoline-1(2H)-carboxylate]	< 50 nM	100 to 1000 nM	< 500 nM
CC(=O)N1c2ccc(-c3cnn(C4CC4)c3)c(OCC(C)(C)F)c2CC[C@@H]1C [I-67, (S)-1-(6-(1-cyclopropyl-1H-pyrazol-4-yl)-5-(2-fluoro-2-methylpropoxy)-2-methyl-3,4-dihydroquinolin-1 (2H)-yl)ethanone]	< 50 nM	100 to 1000 nM	< 500 nM
COC(=O)N1c2ccc(-c3cnn(C4CCOCC4)c3)c(OC3CCC3)c2CC[C@@H]1C [I-68, (S)-methyl 5-cyclobutoxy-2-methyl-6-(1-(tetrahydro-2H-pyran-4-yl)-1H-pyrazol-4-yl)-3,4-dihydroquinoline-1(2H)-carboxylate]	< 50 nM	100 to 1000 nM	< 500 nM

Reference: patent US10611750B2, “Tetrahydroquinoline compositions as bet bromodomain inhibitors” (FORMA Therapeutics, Inc., priority 2013, dated 2020)
